Measurements taken from DBAASP.
Values after ≈ are worked out from the molar mass of the structure shown. Values joined by “and” are separate entries in the source; they are usually repeats but may differ in a detail not shown here. Equal entries are not always repeated. Each block holds one compound with its values, some of them ahead of it.

Tests used:
Test in all cases: ≥ marks a high value that may be exact or a test limit, other limits are often not marked, values filed in µg/mL are converted to µM
[1] = test system: Staphylococcus aureus USA 300
[2] = test system: Staphylococcus epidermidis KCTC 1917
Escherichia coli mcr = test system: Escherichia coli mcr
[3] = test system: Salmonella typhimurium CCARM 8003
[4] = test system: Bacillus subtilis KCTC 1021
Glaesserella parasuis = test system: Glaesserella parasuis
[5] = test system: Pseudomonas aeruginosa KCTC 2004
[6] = test system: Staphylococcus aureus KCTC 1916
[7] = test system: Acinetobacter baumannii CCARM 12005
[8] = test system: Actinobacillus pleuropneumoniae
Escherichia coli K-12 = test system: Escherichia coli K-12
[9] = test system: Salmonella typhimurium KCTC 1926
[10] = test system: Staphylococcus aureus KCTC 3881
Pseudomonas aeruginosa = test system: Pseudomonas aeruginosa
Bacillus subtilis 168 = test system: Bacillus subtilis 168
[11] = test system: Staphylococcus aureus CCARM 3089
[12] = test system: Aeromonas salmonicida NCTC 7812
[13] = test system: Escherichia coli KCTC 1682
[14] = test system: Salmonella typhimurium CVCC 542
Salmonella sp. = test system: Salmonella sp.
Streptococcus iniae = test system: Streptococcus iniae
[15] = test system: Pseudomonas aeruginosa PAO1
[16] = test system: Pseudomonas aeruginosa KCTC 2513
[17] = test system: Staphylococcus aureus CCARM 3114
Vibrio alginolyticus = test system: Vibrio alginolyticus
Lactococcus garvieae = test system: Lactococcus garvieae
[18] = test system: Staphylococcus aureus CCARM 3090
[19] = test system: Bacillus subtilis KCTC 1022
[20] = test system: Bacillus subtilis KCTC 3068
[21] = test system: Pseudomonas aeruginosa CCARM 2002
[22] = test system: Enterococcus faecalis ATCC 29212
[23] = test system: Staphylococcus aureus CCARM 3108
Staphylococcus aureus = test system: Staphylococcus aureus
Escherichia coli = test system: Escherichia coli
Shigella flexneri = test system: Shigella flexneri
[24] = test system: Escherichia coli KCTC 2593
[25] = test system: Pseudomonas aeruginosa KCTC 1637
Enterococcus faecalis = test system: Enterococcus faecalis
[26] = test system: Escherichia coli KCTC 2571
[27] = test system: Staphylococcus aureus CCARM 3126
[28] = test system: Staphylococcus aureus ATCC 29213
[29] = test system: Staphylococcus aureus KCTC 1621
[30] = test system: Escherichia coli CCARM 1229
Aeromonas salmonicida = test system: Aeromonas salmonicida
Campylobacter jejuni = test system: Campylobacter jejuni
[31] = test system: Acinetobacter baumannii KCTC 2508
Acinetobacter baumannii = test system: Acinetobacter baumannii
[32] = test system: Bacillus subtilis ATCC 6633
[33] = test system: Candida albicans TIMM 1768
[34] = test system: Streptococcus pyogenes KCTC 3096
[35] = test system: Staphylococcus aureus 3551
[36] = test system: Escherichia coli ATCC 33694
[37] = test system: Staphylococcus epidermidis KCTC 3096
Campylobacter coli = test system: Campylobacter coli
[38] = test system: Pseudomonas aeruginosa 3552
Campylobacter lari = test system: Campylobacter lari
[39] = test system: Staphylococcus aureus 1870
[40] = test system: Trichosporon beigelii KCTC 7707
[41] = test system: Staphylococcus aureus 4716
[42] = test system: Bacillus subtilis KCTC 1918
Botrytis cinerea = test system: Botrytis cinerea
Fusarium oxysporum = test system: Fusarium oxysporum
[43] = test system: Micrococcus luteus CIP 5345
Escherichia coli SBS 363 = test system: Escherichia coli SBS 363

Compound: CC[C@H](C)[C@H](NC(=O)CNC(=O)[C@H](CCCNC(=N)N)NC(=O)[C@H](Cc1ccccc1)NC(=O)[C@@H](NC(=O)[C@H](Cc1cnc[nH]1)NC(=O)[C@H](Cc1cnc[nH]1)NC(=O)[C@H](Cc1ccccc1)NC(=O)[C@@H](N)Cc1ccccc1)[C@@H](C)CC)C(=O)N[C@H](C(=O)N[C@@H](Cc1cnc[nH]1)C(=O)N[C@H](C(=O)NCC(=O)N[C@@H](CCCCN)C(=O)N[C@H](C(=O)N[C@H](C(=O)N[C@@H](Cc1cnc[nH]1)C(=O)N[C@@H](CCCNC(=N)N)C(=O)N[C@@H](CC(C)C)C(=O)N[C@H](C(=O)N[C@H](C(=O)NCC(=O)O)[C@@H](C)O)C(C)C)[C@@H](C)CC)[C@@H](C)O)C(C)C)C(C)C [FFHHIFRGIVHVGKTIHRLVTG]
MIC [1]: 3.1 µM (≈ 7.97 µg/mL) | MIC [2]: 2 µM (≈ 5.14 µg/mL) | MIC (Escherichia coli mcr): 2.2 µM (≈ 5.66 µg/mL) | MIC [3]: 4 µM (≈ 10.3 µg/mL) | MIC [4]: 2 µM (≈ 5.14 µg/mL) | MIC (Glaesserella parasuis): 3.11 µM (≈ 8 µg/mL) | MIC [5]: 2 µM (≈ 5.14 µg/mL) | MIC [6]: 1 µM (≈ 2.57 µg/mL) | MIC [7]: 2 µM (≈ 5.14 µg/mL) | MIC [8]: 6.22 µM (≈ 16 µg/mL) | MIC (Escherichia coli K-12): 12.5 µM (≈ 32.2 µg/mL) | MIC [9]: 2 µM (≈ 5.14 µg/mL) | MIC [10]: 2 µM (≈ 5.14 µg/mL) | MIC (Pseudomonas aeruginosa): 4.86 µM and 12.4 µM | MIC (Bacillus subtilis 168): 12.5 µM (≈ 32.2 µg/mL) | MIC [11]: 8 µM (≈ 20.6 µg/mL) | MIC [12]: ≥ 77.8 µM | MIC [13]: 2 µM (≈ 5.14 µg/mL) | MIC [14]: 6.22 µM (≈ 16 µg/mL) | MIC (Salmonella sp.): 6.22 µM (≈ 16 µg/mL) | MIC (Streptococcus iniae): 1.21 µM (≈ 3.1 µg/mL) | MIC [15]: 50 µM (≈ 129 µg/mL) | MIC [16]: 2 µM (≈ 5.14 µg/mL) | MIC [17]: 4 µM (≈ 10.3 µg/mL) | MIC (Vibrio alginolyticus): 1.21 µM (≈ 3.1 µg/mL) | MIC (Lactococcus garvieae): 1.21 µM (≈ 3.1 µg/mL) | MIC [18]: 8 µM (≈ 20.6 µg/mL) | MIC [19]: 1 µM (≈ 2.57 µg/mL) | MIC [20]: 2 µM (≈ 5.14 µg/mL) | MIC [21]: 2 µM (≈ 5.14 µg/mL) | MIC [22]: 1.22 µM (≈ 3.14 µg/mL) | MIC [23]: 4 µM (≈ 10.3 µg/mL) | MIC (Staphylococcus aureus): 1.21 µM (≈ 3.1 µg/mL) | MIC (Escherichia coli): 1.21 µM (≈ 3.1 µg/mL) | MIC (Shigella flexneri): 1.21 µM (≈ 3.1 µg/mL) | MIC [24]: 1 µM (≈ 2.57 µg/mL) | MIC [25]: 4 µM (≈ 10.3 µg/mL) | MIC (Enterococcus faecalis): 1.21 µM (≈ 3.1 µg/mL) | MIC [26]: 1 µM (≈ 2.57 µg/mL) | MIC [27]: 4 µM (≈ 10.3 µg/mL) | MIC [28]: 2.43 µM (≈ 6.25 µg/mL) | MIC [29]: 4 µM (≈ 10.3 µg/mL) | MIC [30]: 4 µM (≈ 10.3 µg/mL) | MIC (Aeromonas salmonicida): 1.21 µM (≈ 3.1 µg/mL)

MIC (Campylobacter jejuni): 20.8 µM (≈ 50 µg/mL) | MIC [31]: 12.5 µM (≈ 30.1 µg/mL) | MIC [9]: 0.78 µM (≈ 1.88 µg/mL) | MIC [13]: 3.12 µM (≈ 7.51 µg/mL) | MIC (Acinetobacter baumannii): 6.25 µM (≈ 15 µg/mL) | MIC [32]: 1.1 µM (≈ 2.65 µg/mL) | MIC [33]: 12.5 µM (≈ 30.1 µg/mL) | MIC [34]: 0.78 µM (≈ 1.88 µg/mL) | MIC [35]: 1 µM (≈ 2.4 µg/mL) | MIC [36]: 6.25 µM (≈ 15 µg/mL) | MIC [37]: 2.21 µM (≈ 5.3 µg/mL) | MIC (Campylobacter coli): 29.4 µM (≈ 70.7 µg/mL) | MIC [38]: 8 µM and 4 µM | MIC (Campylobacter lari): 20.8 µM (≈ 50 µg/mL) | MIC [25]: 1.56 µM (≈ 3.75 µg/mL) | MIC [39]: ≥ 64 µM | MIC [40]: 6.25 µM (≈ 15 µg/mL) | MIC [41]: 4 µM (≈ 9.62 µg/mL) | MIC [29]: 3.12 µM (≈ 7.51 µg/mL) | MIC [42]: 0.78 µM (≈ 1.88 µg/mL)
Compound: CC[C@H](C)[C@H](NC(=O)CNC(=O)[C@@H](NC(=O)[C@H](CCCCN)NC(=O)[C@H](CCCCN)NC(=O)[C@H](Cc1ccccc1)NC(=O)[C@H](CC(C)C)NC(=O)[C@H](CCCCN)NC(=O)[C@H](Cc1c[nH]c2ccccc12)NC(=O)[C@@H](N)CCCCN)[C@@H](C)CC)C(=O)NCC(=O)N[C@@H](CCCCN)C(=O)N[C@@H](Cc1ccccc1)C(=O)N[C@@H](CC(C)C)C(=O)N[C@@H](Cc1cnc[nH]1)C(=O)N[C@@H](CO)C(=O)N[C@@H](C)C(=O)N[C@@H](CCCCN)C(=O)N[C@@H](CCCCN)C(=O)N[C@@H](Cc1ccccc1)C(N)=O [KWKLFKKIGIGKFLHSAKKF]

MIC (Botrytis cinerea): ≥ 100 µM | MIC (Fusarium oxysporum): ≥ 100 µM | MIC [43]: ≥ 200 µM | MIC (Escherichia coli SBS 363): ≥ 200 µM
Compound: NCCCC[C@H](NC(=O)[C@@H]1CCCN1C(=O)[C@@H](N)CCCN=C(N)N)C(=O)N1CCC[C@H]1C(=O)N[C@@H](CCCN=C(N)N)C(=O)N1CCC[C@H]1C(=O)N[C@@H](CCCN=C(N)N)C(=O)N1CCC[C@H]1C(=O)N[C@@H](CCCN=C(N)N)C(=O)N1CCC[C@H]1C(=O)N[C@@H](CCC(=O)O)C(N)=O [RPKPRPRPRPE]
